Reference: patent US10597388B2, “Pyridazinone herbicides” (FMC CORPORATION, priority 2014, dated 2020)

Legend:
Assay type in all cases: in vivo
[1] = system: morningglory (Ipomoea coccinea); experiment: Test C greenhouse herbicide test, pre- and postemergence
Outline: (§1)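 Preemergence: seeds sown in a loam soil–sand blend and sprayed with test chemicals in a non-phytotoxic solvent mixture containing surfactant. Postemergence: plants grown in peat-based medium and treated at 2 to 18 cm (1- to 4-leaf stage). After 13 to 15 d in a greenhouse, injury was visually rated 0–100 against controls.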

[2] = system: velvetleaf (Abutilon theophrasti); experiment: as above
Outline: as §1

[3] = system: blackgrass (Alopecurus myosuroides); experiment: as above
Outline: as §1

corn (Zea mays) = experiment: as above
Outline: as §1

[4] = system: ryegrass, Italian (Italian ryegrass, Lolium multiflorum); experiment: as above
Outline: as §1

[5] = system: pigweed (Amaranthus retroflexus); experiment: as above
Outline: as §1

[6] = system: wheat (Triticum aestivum); experiment: Test A greenhouse herbicide test, pre- and postemergence; settings: Postemergence
Outline: (§2)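 Seeds sown in loam–sand blend got a preemergence directed soil spray of compound in non-phytotoxic solvent with surfactant. Postemergence treatment was given at 2–10 cm, one- to two-leaf stage. After ~10 d in greenhouse, injury was rated visually vs untreated controls, 0 (no effect) to 100 (complete control).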

kochia (Kochia scoparia) = experiment: as above
Outline: as §2

[7] = system: foxtail, giant (giant foxtail, Setaria faberii); experiment: as above
Outline: as §2

[8] = system: ragweed (common ragweed, Ambrosia elatior); experiment: as above
Outline: as §2

[9] = system: pigweed (Amaranthus retroflexus); experiment: as above
Outline: as §2

[10] = Postemergence, 125 g ai/ha, scale 0 to 100, 0 is no effect, 100 is complete control
[11] = Postemergence, 250 g ai/ha, scale 0 to 100, 0 no effect, 100 complete control, 13 to 15 d
[12] = Preemergence, 31 g ai/ha, scale 0 to 100, 0 is no effect, 100 is complete control
[13] = Preemergence, 62 g ai/ha, scale 0 to 100, 0 is no effect, 100 is complete control
[14] = Preemergence, 125 g ai/ha, scale 0 to 100, 0 is no effect, 100 is complete control
[15] = Preemergence, 250 g ai/ha, scale 0 to 100, 0 no effect, 100 complete control
[16] = postemergence, 62 g ai/ha, scale 0 to 100, 0 no effect, 100 complete control
[17] = Postemergence, 31 g ai/ha, 0 to 100 scale (0 no effect, 100 complete control)
[18] = Postemergence, 125 g ai/ha, 0 to 100 scale where 0 is no effect and 100 is complete control
[19] = Postemergence, 500 g ai/ha, 0 to 100 scale, 0 is no effect, 100 is complete control
[20] = Preemergence, 125 g ai/ha, 0 to 100 scale where 0 is no effect and 100 is complete control
[21] = Preemergence, 500 g ai/ha, 0 to 100 scale where 0 is no effect and 100 is complete control

Cc1sc2ccccc2c1-c1c(O)c(Cl)nn(C)c1=O [Compound 89]
20: Plant response rating, Ryegrass, Italian [4, 12]
100: Plant response rating, Pigweed [5, 13] | Plant response rating, Pigweed [5, 14] | Pigweed plant response rating [5, 15] | Pigweed plant response rating [9, 20] | Plant response rating, Pigweed [9, 21]
50: Foxtail, Giant plant response rating [7, 20]
95: Morningglory plant response rating [1, 16] | Plant response rating, Pigweed [5, 11] | Plant response rating, Pigweed [5, 12]
45: Blackgrass plant response rating [3, 15]
5: Plant response rating, Blackgrass [3, 11] | Plant response rating, Blackgrass [3, 12] | Corn plant response rating (corn (Zea mays); [17]) | Plant response rating, Corn (corn (Zea mays); [11]) | Corn plant response rating (corn (Zea mays); [16])
40: Plant response rating, Blackgrass [3, 13] | Plant response rating, Blackgrass [3, 14]
75: Plant response rating, Velvetleaf [2, 10] | Velvetleaf plant response rating [2, 16] | Plant response rating, Ryegrass, Italian [4, 10] | Ryegrass, Italian plant response rating [4, 16] | Pigweed plant response rating [5, 16]
70: Plant response rating, Velvetleaf [2, 12] | Kochia plant response rating (kochia (Kochia scoparia); [20]) | Plant response rating, Foxtail, Giant [7, 18]
85: Plant response rating, Morningglory [1, 13] | Plant response rating, Morningglory [1, 14] | Velvetleaf plant response rating [2, 15]
0: Blackgrass plant response rating [3, 17] | Plant response rating, Blackgrass [3, 10] | Blackgrass plant response rating [3, 16] | Plant response rating, Corn (corn (Zea mays); [12]) | Plant response rating, Corn (corn (Zea mays); [13]) | Plant response rating, Corn (corn (Zea mays); [14]) | Corn plant response rating (corn (Zea mays); [15]) | Plant response rating, Wheat ([6]; 125 g ai/ha, 0 to 100 scale where 0 is no effect and 100 is complete control) | Wheat plant response rating ([6]; 500 g ai/ha, 0 to 100 scale, 0 is no effect, 100 is complete control)
80: Plant response rating, Morningglory [1, 12] | Plant response rating, Velvetleaf [2, 11] | Plant response rating, Velvetleaf [2, 13] | Plant response rating, Ryegrass, Italian [4, 11] | Plant response rating, Ryegrass, Italian [4, 13] | Plant response rating, Pigweed [5, 10] | Plant response rating, Kochia (kochia (Kochia scoparia); [18]) | Foxtail, Giant plant response rating [7, 19] | Plant response rating, Foxtail, Giant [7, 21] | Plant response rating, Ragweed [8, 18] | Ragweed plant response rating [8, 20] | Plant response rating, Pigweed [9, 18]
98: Plant response rating, Morningglory [1, 10] | Plant response rating, Morningglory [1, 11]
10: Plant response rating, Corn (corn (Zea mays); [10])
90: Morningglory plant response rating [1, 15] | Plant response rating, Velvetleaf [2, 14] | Plant response rating, Ryegrass, Italian [4, 14] | Ryegrass, Italian plant response rating [4, 15] | Kochia plant response rating (kochia (Kochia scoparia); [19]) | Plant response rating, Kochia (kochia (Kochia scoparia); [21]) | Ragweed plant response rating [8, 19] | Plant response rating, Ragweed [8, 21] | Pigweed plant response rating [9, 19]
